In patent US20120214847A1, “2-[1-PHENYL-5-HYDROXY-4a-SUBSTITUTED-HEXAHYDROCYCLOPENTA[F]INDAZOL-5-YL]ETHYL PHENYL DERIVATIVES AS GLUCOCORTICOID RECEPTOR LIGANDS” (Merck Sharp & Dohme Corp., priority 2009, published 2012):

Target: T1, human GR (Homo sapiens, UniProt P04150)
T1 construct: naturally expresses the human GR; endogenous in cells
T1 sequence (P04150 1-777): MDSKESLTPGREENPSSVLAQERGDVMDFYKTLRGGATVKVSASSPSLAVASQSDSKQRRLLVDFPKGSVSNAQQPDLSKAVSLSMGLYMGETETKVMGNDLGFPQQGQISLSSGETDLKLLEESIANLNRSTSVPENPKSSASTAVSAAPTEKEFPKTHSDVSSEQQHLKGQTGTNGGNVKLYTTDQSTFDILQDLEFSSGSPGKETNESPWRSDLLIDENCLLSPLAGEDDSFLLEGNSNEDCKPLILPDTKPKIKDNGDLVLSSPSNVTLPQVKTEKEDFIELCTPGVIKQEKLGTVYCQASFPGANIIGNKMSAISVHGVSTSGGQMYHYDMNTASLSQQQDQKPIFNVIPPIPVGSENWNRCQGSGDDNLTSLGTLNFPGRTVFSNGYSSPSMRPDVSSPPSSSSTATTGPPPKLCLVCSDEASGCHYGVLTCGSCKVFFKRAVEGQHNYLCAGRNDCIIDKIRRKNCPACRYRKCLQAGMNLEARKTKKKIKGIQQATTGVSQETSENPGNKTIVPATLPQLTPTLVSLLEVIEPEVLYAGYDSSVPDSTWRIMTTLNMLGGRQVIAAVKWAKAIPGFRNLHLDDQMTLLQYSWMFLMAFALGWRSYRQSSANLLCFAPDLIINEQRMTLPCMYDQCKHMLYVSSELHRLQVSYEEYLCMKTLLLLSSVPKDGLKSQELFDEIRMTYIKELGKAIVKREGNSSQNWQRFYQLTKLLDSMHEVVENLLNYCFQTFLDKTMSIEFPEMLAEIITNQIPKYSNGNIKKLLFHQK
Assay: Transrepression assay (GITAR), TNFα-β-lactamase reporter in U937 cells
Type: cell-based
Details: for EC50 / Transrepression U937 Cells GITAR Emax (%): U937 cells; for EC50: IP = inflection point; for Emax: U-937, U937 cells; for Emax / Transrepression U937 Cells GITAR Emax (%): activity repressed by 100 nM dexamethasone alone set as 100%
From the text: Transrepression Assay (GITAR)
This assay assesses the ability of test compounds to control transcription from the TNFα-β-lactamase reporter gene in U937 cells, a human myelomonocytic leukemia cell line that naturally expresses the human GR. The assay measures compound dependent-repression of the TNFa promoter linked to a reporter gene.
The human U937 cells that had been stablely transfected with the TNF-a promoter driving ˜-lactamase are used for this assay. U937 cells contain an endogenous glucocorticoid receptor (GR). Cells are maintained in RPMI 1640 Growth medium (GibcoCat#11875-093) containing 25 mM HEPES, 10% FBS, 2 mM L-Glutamine, 1 mM Sodium pyruvate, 25 μg/ml Gentamicin (Gibed Cat#1571 0-064), 1:1000 2-Mercaptoethanol (Gibco Cat#21985-023) and 0.8 mg/ml G418 (Gibco Cat#10131-027). The density of the cells in the flask needs to be about 1×10^6-3×10^6/ml at the time of harvest. Usually, the cells are split to 1.2˜1.4×10^5/ml (1:10) 3 days prior to the assay. 50,000 cells/well are plated in 96 well black-walled plates the day of assay. Test compounds are added 10 J.lL/well, and cells are incubated at 37° C. for 30˜45 min. For assaying compounds, first dilute 1:10 in DMSO to make 1 mM, then further dilute 1:100 in medium to make 10× stock prior to adding to the cells. Add 50 ng/ml PMA (Sigma, cat#P8139) 10 μL/well to a final concentration 5 ng/ml, and 1 μg/ml LPS (Sigma, cat#L4130) 10 μL/well to a final concentration 100 ng/ml. Incubate cells at 370 C overnight for −18 hr. PMA is stored frozen as […] in DMSO. Dilute 1:10 in DMSO for a working stock of 10 μg/ml and store at −20° C. For assaying, dilute the 10 μg/ml working stock 1:200 in medium to make a 10× solution (50 ng/ml). Store frozen LPS at 1 mg/ml in PBS, dilute 1:1000 in medium to make 10×μg/ml) for the assay. Add 6× loading buffer (CCF2-AM) 20 μL/well, and incubate at room temperature for 70-90 min. […] The activity repressed by 100 nM dexamethasone alone is set as 100% activity.

Compound | EC50 | Emax | Transrepression U937 Cells GITAR Emax (%)
NC(=O)C(O)c1ccccc1CC[C@]1(O)CCC2=Cc3c(cnn3-c3ccc(F)cc3)C[C@@]21C1CC1 (single isomer, unassigned) [Example 3b] | 68 nM | 85% | 
CC[C@]12Cc3cnn(-c4ccc(F)cc4)c3C=C1CC[C@@]2(O)CC(O)c1ccc(F)cn1 (single isomer, unassigned) [Example 69a] | 111 nM | 74% | 
NC(=O)c1cccnc1CC[C@]1(O)CCC2=Cc3c(cnn3-c3ccc(F)cc3)C[C@@]21C1CC1 [Example 1, 2-{2-[(4aR,5R)-4a-Cyclopropyl-1-(4-fluorophenyl)-5-hydroxy-1,4,4a,5,6,7-hexahydrocyclopenta[f]indazol-5-yl]ethyl}pyridine-3-carboxamide] | 55 nM | 77% | 
CC[C@]12Cc3cnn(-c4cccnc4)c3C=C1CC[C@@]2(O)CCc1ccccc1C#N [Example 5, 2-{2-[(4aS,5R)-4a-Ethyl-5-hydroxy-1-(pyridin-3-yl)-1,4,4a,5,6,7-hexahydrocyclopenta[f]indazol-5-yl]ethyl}benzonitrile] | 31 nM | 80% | 
CC[C@]12Cc3cnn(-c4ccccc4)c3C=C1CC[C@@]2(O)CCc1ccc(F)cc1C(N)=O [Example 6] | 143 nM | 75% | 
NC(=O)c1ccccc1CC[C@]1(O)CCC2=Cc3c(cnn3-c3cccc(F)c3)C[C@@]21C1CC1 [Example 7, 2-{2-[(4aR,5R)-4a-Cyclopropyl-1-(3-fluorophenyl)-5-hydroxy-1,4,4a,5,6,7-hexahydrocyclopenta[f]indazol-5-yl]ethyl}benzamide] | 143 nM | 67% | 
CC[C@]12Cc3cnn(-c4cccnc4)c3C=C1CC[C@@]2(O)CCc1ccc(F)cc1C#N [Example 9, 2-{2-[(4aS,5R)-4a-Ethyl-5-hydroxy-1-(pyridin-3-yl)-1,4,4a,5,6,7-hexahydrocyclopenta[f]indazol-5-yl]ethyl}-5-fluorobenzonitrile] | 120 nM | 71% | 
CC[C@]12Cc3cnn(-c4cccc(F)c4)c3C=C1CC[C@@]2(O)CCc1cccc(F)c1C(N)=O [Example 12, 2-{2-[(4aS,5R)-4a-Ethyl-1-(3-fluorophenyl)-5-hydroxy-1,4,4a,5,6,7-hexahydrocyclopenta[f]indazol-5-yl]ethyl}-6-fluorobenzamide] | 25 nM | 87% | 
CC[C@]12Cc3cnn(-c4ccc(F)cc4)c3C=C1CC[C@@]2(O)CCc1cc(F)ccn1 [Example 18, (4aS,5R)-4a-Ethyl-1-(4-fluorophenyl)-5-[2-(4-fluoropyridin-2-yl)ethyl]-1,4,4a,5,6,7-hexahydrocyclopenta[f]indazol-5-ol] | 74 nM | 80% | 
CC[C@]12Cc3cnn(-c4ccc(F)cc4)c3C=C1CC[C@@]2(O)CCc1ccc(F)cn1 [Example 19, (4aS,5R)-4a-Ethyl-1-(4-fluorophenyl)-5-[2-(5-fluoropyridin-2-yl)ethyl]-1,4,4a,5,6,7-hexahydrocyclopenta[f]indazol-5-ol] | 263 nM | 77% | 

The next lines start with the values.

EC50 | Emax | Transrepression U937 Cells GITAR Emax (%) | Compound
217 nM | 54% |  | CC[C@]12Cc3cnn(-c4ccccc4)c3C=C1CC[C@@]2(O)CC(O)c1ccccn1 (single isomer, unassigned) [Example 67a]
277 nM |  | 44% | CC[C@]12Cc3cnn(-c4ccccc4)c3C=C1CC[C@@]2(O)CC(O)c1ccccn1 (single isomer, unassigned) [Example 67b]
94 nM |  | 80% | CC[C@]12Cc3cnn(-c4ccc(F)cc4)c3C=C1CC[C@@]2(O)CC(O)c1ccc(F)cn1 (single isomer, unassigned) [Example 69b]
167 nM | 41% |  | OC(C[C@]1(O)CCC2=Cc3c(cnn3-c3ccc(F)cc3)C[C@@]21C1CC1)c1ccc(F)cn1 (single isomer, unassigned) [Example 79a]
83 nM | 71% |  | NC(=O)c1cc(F)cnc1CC[C@]1(O)CCC2=Cc3c(cnn3-c3ccc(F)cc3)C[C@@]21C1CC1 [Example 4, 2-{2-[(4aR,5R)-4a-Cyclopropyl-1-(4-fluorophenyl)-5-hydroxy-1,4,4a,5,6,7-hexahydrocyclopenta[f]indazol-5-yl]ethyl}-5-fluoropyridine-3-carboxamide]
90 nM | 88% |  | CC[C@]12Cc3cnn(-c4ccc(F)cc4)c3C=C1CC[C@@]2(O)CCc1ccc(F)cc1C(N)=O [Example 8, 2-{2-[(4aS,5R)-4a-Ethyl-1-(4-fluorophenyl)-5-hydroxy-1,4,4a,5,6,7-hexahydrocyclopenta[f]indazol-5-yl]ethyl}-5-fluorobenzamide]
113 nM | 64% |  | CC[C@]12Cc3cnn(-c4cccnc4)c3C=C1CC[C@@]2(O)CCc1cccc(F)c1C#N [Example 10, 2-{2-[(4aS,5R)-4a-Ethyl-5-hydroxy-1-(pyridin-3-yl)-1,4,4a,5,6,7-hexahydrocyclopenta[f]indazol-5-yl]ethyl}-6-fluorobenzonitrile]
80 nM | 82% |  | CC[C@]12Cc3cnn(-c4cccc(F)c4)c3C=C1CC[C@@]2(O)CCc1ccccc1C(N)=O [Example 11, 2-{2-[(4aS,5R)-4a-Ethyl-1-(3-fluorophenyl)-5-hydroxy-1,4,4a,5,6,7-hexahydrocyclopenta[f]indazol-5-yl]ethyl}benzamide]
163 nM | 76% |  | CC[C@]12Cc3cnn(-c4cccnc4)c3C=C1CC[C@@]2(O)CCc1ccccc1C(N)=O [Example 13, 2-{2-[(4aS,5R)-4a-Ethyl-5-hydroxy-1-(pyridin-3-yl)-1,4,4a,5,6,7-hexahydrocyclopenta[f]indazol-5-yl]ethyl}benzamide]
43 nM | 88% |  | CC[C@]12Cc3cnn(-c4cccnc4)c3C=C1CC[C@@]2(O)CCc1cccc(F)c1C(N)=O [Example 14, 2-{2-[(4aS,5R)-4a-Ethyl-5-hydroxy-1-(pyridin-3-yl)-1,4,4a,5,6,7-hexahydrocyclopenta[f]indazol-5-yl]ethyl}-6-fluorobenzamide]
114 nM | 89% |  | CC[C@]12Cc3cnn(-c4ccccc4)c3C=C1CC[C@@]2(O)CCc1cccc(F)c1C#N [Example 15, 2-{2-[(4aS,5R)-4a-Ethyl-5-hydroxy-1-phenyl-1,4,4a,5,6,7-hexahydrocyclopenta[f]indazol-5-yl]ethyl}-6-fluorobenzonitrile]
93 nM | 79% |  | CC[C@]12Cc3cnn(-c4ccc(F)cc4)c3C=C1CC[C@@]2(O)CCc1ccccn1 [Example 16, (4aS,5R)-4a-Ethyl-1-(4-fluorophenyl)-5-[2-(pyridin-2-yl)ethyl]-1,4,4a,5,6,7-hexahydrocyclopenta[f]indazol-5-ol]
44 nM | 89% |  | CC[C@]12Cc3cnn(-c4ccc(F)cc4)c3C=C1CC[C@@]2(O)CCc1ncccc1F [Example 17, (4aS,5R)-4a-Ethyl-1-(4-fluorophenyl)-5-[2-(3-fluoropyridin-2-yl)ethyl]-1,4,4a,5,6,7-hexahydrocyclopenta[f]indazol-5-ol]
28 nM | 86% |  | CC[C@]12Cc3cnn(-c4ccccc4)c3C=C1CC[C@@]2(O)CCc1ccccc1C(N)=O [Example 20, 2-{2-[(4aS,5R)-4a-Ethyl-5-hydroxy-1-phenyl-1,4,4a,5,6,7-hexahydrocyclopenta[f]indazol-5-yl]ethyl}benzamide]
